Values of other authors in patent US20180066081A1, “SUBSTITUTED CYCLIC ETHER POLYMERS AND CONJUGATES AND USES THEREOF” (UNIVERSITY OF IOWA RESEARCH FOUNDATION, priority 2015, published 2018).

Conditions: chlorhexidine rinses (e.g., PERIDEX, chlorhexidine gluconate 0.12%); from package insert

Q: For `[H]/N=C(\N/C(=N/[H])NCCCCCCNC(=N)NC(=N)Nc1ccc(Cl)cc1)Nc1ccc(Cl)cc1` [chlorhexidine], which “active compound retained in the oral cavity following application” value is on record?
A: about 30%
